# In PMC10708454, “Mentha spp. Essential Oils: A Potential Toxic Fumigant with Inhibition of Acetylcholinesterase Activity on Reticulitermes dabieshanensis” (Plants, 2023):
# Biological target: T1, acetylcholinesterase (AChE)
# T1 construct: gene ace-1; native enzyme in crude whole-worker homogenate (Triton X-100 supernatant), not purified; the docking model is of Coptotermes formosanus, not this enzyme
# Assay: Ellman assay, crude termite homogenate
# Assay type: biochemical, Reticulitermes dabieshanensis
# Conditions: acetylthiocholine iodide (10 mM stock), DTNB, Tris-HCl pH 7.8, 30 min, inhibitor in alcohol
Structure (SMILES),IC50 ^a (95% CI ^b) (0.5-6.0 μL/mL),IC50 ^a (95% CI ^b) (1.0-20.0 μL/mL (value outside tested range))
C=C(C)C1CC=C(C)C(=O)C1 (stereo not drawn) [carvone],1.922 (1.131–3.308) μL/mL,
C=CC(C)(O)CCC=C(C)C (stereo not drawn) [linalool],0.136 (0.066–0.218) μL/mL,
CC(C)[C@@H]1CC[C@@H](C)C[C@H]1O [menthol],,76.790 (36.58–166.367) μL/mL
